In patent publication US11559527B2 (priority 2017, dated 2023):

Test system: E-cadherin
Assay: Western blotting (immunoblot)
Assay type: cell-based, Human
Settings: MCF7 cells after mDIVI-1 treatment
Procedure: Breast cancer stem cells can exist in distinct states, an mesenchymal-like state and an epithelial-like state, being the first one characterized for its expression of CD24^−/CD44^+, with an mesenchymal-like gene-expression profile and primarily quiescent.
At the end of the treatment, cells in suspension were spun down and lysed and attached cells were directly lysed in RIPA lysis buffer (R0278, Sigma) containing proteinase inhibitors (05 892 970 001, Roche) and kept at 4° C. for 20 minutes with rotation. Lysates were cleared by centrifugation for 10 minutes at 10,000×g and supernatants were collected. Equal amounts of protein lysate, as determined by using the BCA protein assay kit (23225, Pierce) were diluted in SDS sample buffer and dry-boiled for 5 minutes before being separated by SDS-PAGE using 4-20% gels (456-1094, Biorad). Samples were then blotted onto nitrocellulose membranes (170-4159, Biorad), blocked in 5% milk in TBS-Tween 20 (P9416, Sigma) for 1 hour and probed with antibodies against E-cadherin (ab8995, Abcam) or β-actin (a2228, Sigma). Bound antibodies were detected using a horseradish peroxidase-conjugated secondary antibody (ab6789 and ab6721, Abcam) and signal was obtained using Supersignal West Pico chemiluminiscent substrate (34087, ThermoScientific). Pictures were taken in a ChemiDoc XRS with Image Lab Software (BioRad).

COc1cc(-n2c(S)nc3ccccc3c2=O)c(Cl)cc1Cl [mDIVI-1, 3-(2,4-Dichloro-5-methoxyphenyl)-2-sulfanyl-4(3H)-quinazolinone]
expression of E-cadherin: reduction
